# Measured values reported in US11253540B2, “Composition including glycosaminoglycan derivative and chemokine receptor activity regulator” (Seikagaku Corporation, priority 2015, dated 2022).
# Experiments:
# [1] = tested on: laser-induced CNV; settings: intravitreal administration, laser-induced CNV model of mouse; cited from earlier work
# [2] = tested on: laser-induced CNV; test: Laser-induced CNV models of rat: CNV area in flat mounts 10 days after intravitreal administration; type: in vivo; design: key to Test results, CNV area vs. DMSO, t-test: **: P < 0.01 (vs. DMSO), t-test; #: P < 0.05 (vs. Ki19003), t-test; N.S.: Not Significant (vs. DMSO), t-test; key to Test results, CNV area vs. DMSO, Dunnett's test: *: P < 0.05 (vs. DMSO), Dunnett's test; N.S.: Not Significant (vs. DMSO), Dunnett's test; #: P < 0.05; ##: P < 0.01 (vs. GW766994), Dunnett's test; key to Test results, CNV area vs. PBS, t-test: *: P < 0.05 (vs. PBS), t-test; N.S.: Not Significant (vs. PBS), t-test; CNV area, mean: unit not given here; settings: for CNV area, mean: 5 μL/eye intravitreal once, 10 days
# Description: Laser-induced CNV models of rat were prepared, and neovascularization inhibitory effect was examined with respect to intravitreal administration of Composition 10 or Ki19003. BN/CrlCrlj rats (male, CHARLES RIVER LABORATORIES JAPAN, INC.) were used for the preparation of animal models. […] The retina around the optic disk was irradiated with a laser beam to induce CNV. Used for the laser beam irradiation were SCOPISOL solution for eye, Fundus 5.4 mm Laser Lens, a laser photocoagulation device and a slit lamp illumination system. Immediately after the laser beam irradiation, 5 μL/eye of the test substance was administered once into the vitreous bodies of both eyes. Immediately after the administration, one drop of an antimicrobial drug ([…] Ophthalmic Solution 0.5%) was instilled. After 10 days from the preparation, the models were euthanized with CO2. The eyeballs were extracted and immersed in 10% neutral buffered solution of formalin (room temperature, about 60 minutes). Eye cups were prepared, washed with PBS, dehydrated with methanol and immersed in PBS containing 1% bovine serum albumin and 0.5% Triton X-100 (room temperature, about 60 minutes). The retina was removed, and 60 μL of 0.5% fluorescein Griffonia simplicifolia lectin I, FITC-conjugate was added to the eye cups, and the eye cups were allowed to stand (under refrigeration, overnight). By this treatment, vascular endothelial cells of CNV were fluorescently stained with FITC-lectin. Eight slits were made radially in each of the eye cups to thereby obtain flat mounts. These flat mounts were washed twice with PBS containing 0.1% Triton X-100 and embedded on a glass slide with about 120 μL of Prolong Gold Antifade Reagent. A fluorescence image of CNV in the flat mount embedded on a glass slide was taken with a fluorescent microscope. The area of CNV was measured using an image processing software (Image pro exp). The areas of CNV in each group were analyzed by a test (t-test) for unpaired two groups. The significance level was 5% on both sides.
# [3] = tested on: laser-induced CNV; test: Laser-induced CNV models of rat: CNV area, flat mounts prepared 4 days after preparation of models; type: in vivo; design: key to Test results, CNV area vs. CS, t-test: N.S.: Not Significant (vs. CS), t-test; settings: Test Example 19; for CNV area, mean: 5 μL/eye intravitreal once, flat mounts after 4 days, Compound 3 10 mg/ml in PBS, CS (about 40,000) 10 mg/mL in PBS
# Description: BN/CrlCrlj rats (male, CHARLES RIVER LABORATORIES JAPAN, INC.) were used for the preparation of animal models. Under general anesthesia by intraperitoneal administration of an anesthetic mixture (saline:Somnopentyl=9:1) (about 2 mL/body), Mydrin-P ophthalmic solution was topically instilled to cause mydriasis in both eyes. The retina around the optic disk was irradiated with a laser beam to induce CNV. Used for the laser beam irradiation were SCOPISOL solution for eye, Fundus 5.4 mm Laser Lens, a laser photocoagulation device and a slit lamp illumination system. Immediately after the laser beam irradiation, 5 μL/eye of the test substance was administered once into the vitreous bodies of both eyes. Immediately after the administration, one drop of an antimicrobial drug (VEGAMOX Ophthalmic Solution 0.5%) was instilled.
# After 10 days from the preparation, the models were euthanized with CO2. The eyeballs were extracted and immersed in 10% neutral buffered solution of formalin (room temperature, about 60 minutes). Eye cups were prepared, washed with PBS, dehydrated with methanol and immersed in PBS containing 1% bovine serum albumin and 0.5% Triton X-100 (room temperature, about 60 minutes). The retina was removed, and 60 μL of 0.5% fluorescein Griffonia simplicifolia lectin I, FITC-conjugate was added to the eye cups, and the eye cups were allowed to stand (under refrigeration, overnight). By this treatment, vascular endothelial cells of CNV were fluorescently stained with FITC-lectin. Eight slits were made radially in each of the eye cups to thereby obtain flat mounts. These flat mounts were washed twice with PBS containing 0.1% Triton X-100 and embedded on a glass slide with about 120 μL of Prolong Gold Antifade Reagent.
# A fluorescence image of CNV in the flat mount embedded on a glass slide was taken with a fluorescent microscope. The area of CNV was measured using an image processing software (Image pro exp).
# Laser-induced CNV models of rat were prepared, and neovascularization inhibitory effect was examined with respect to intravitreal administration of Compound 3.
# Substantially the same procedure as in ? Method ? for Test Example 1 was repeated, except that flat mounts were prepared 4 days after the preparation of models, instead of 10 days after the preparation of models in Test Example 1.
# The areas of CNV in each group were analyzed by a test (t-test) for unpaired two groups. The significance level was 5% on both sides.
molecule,measurement,setting,value
heparan sulfate,suppression of CNV,[1],suppressed CNV
chondroitin sulfate [CS],"Test results, CNV area vs. PBS, t-test",[2]; Test Example 18,N.S.
same,"CNV area, mean","[2]; Test Example 18, CS (average molecular weight about 140,000) 20 mg/mL in PBS",30462
same,"inhibitory effects of CNV, as compared to PBS","[2]; Test Example 18, CS 20 mg/mL",did not show significant inhibitory effects of CNV
same,"CNV area, mean",[3],50236
NC(N)=NCCC[C@H](NC(=O)[C@@H]1Cc2ccccc2CN1C(=O)CCC(=O)c1ccccc1)C(=O)NCC1CCCCC1 [PS372424],"CNV area, mean","[2]; Test Example 15, Composition 38 containing 0.091 mg/mL of PS372424, PS372424 0.1 mg/mL in DMSO",36842
Cc1ccc2c(c1)C1(CCN(CCc3nc(-c4ccccc4)oc3C)CC1)OC(=O)N2 [RS504393],"Test results, CNV area vs. DMSO, t-test",[2]; Test Example 14,N.S.
same,"CNV area, mean","[2]; Test Example 14, Composition 37 containing 0.01 mg/mL of RS504393, RS504393 0.01 mg/mL in DMSO",44137
5β-Cholanic Acid-Introduced CS [Compound 3],"Test results, CNV area vs. CS, t-test",[3],N.S.
same,"inhibitory effects of CNV, as compared to CS",[3],did not show significant inhibitory effects of CNV
same,"CNV area, mean",[3],51925
NC(=O)c1ccc(CNC(=O)NC[C@H]2CN(Cc3ccc(Cl)c(Cl)c3)CCO2)cc1 [GW766994],"inhibitory effects of CNV, as compared to DMSO","[2]; GW766994 dissolved in DMSO, 2 mg/mL and 1.5 mg/mL (Test Examples 6 and 10), both concentrations",did not have inhibitory effects of CNV
same,"Test results, CNV area vs. DMSO, t-test",[2]; Test Example 6,N.S.
same,"CNV area, mean","[2]; Test Example 6, Composition 33 containing 2 mg/mL of GW766994, GW766994 2 mg/mL in DMSO",41548
same,"Test results, CNV area vs. DMSO, Dunnett's test",[2]; Test Example 10,N.S.
same,"CNV area, mean","[2]; Test Example 10, Composition 6 containing 0.71, Composition 7 0.83 mg/mL of GW766994, GW766994 1.5 mg/mL in DMSO",30795
O=C(Nc1ccc([N+](=O)[O-])cc1O)Nc1ccccc1Br [SB225002],"Test results, CNV area vs. DMSO, t-test",[2]; Test Example 5,N.S.
same,"CNV area, mean","[2]; Test Example 5, Composition 31 containing 0.018, Composition 32 0.02 mg/mL of SB225002, SB225002 0.02 mg/mL in DMSO",43121
Cc1ccc(S(=O)(=O)NC(=O)N2CCC(N3CCC(Oc4ccc(Cl)c(Cl)c4)CC3)CC2)cc1 [AZD3778],"Test results, CNV area vs. DMSO, t-test",[2]; Test Example 8,N.S.
same,"CNV area, mean","[2]; Test Example 8, Composition 35 containing 0.1 mg/mL of AZD3778, AZD3778 0.1 mg/mL in DMSO",43935
heparin,suppression of CNV,[1],suppressed CNV
COC(=O)[C@H](Cc1ccc([N+](=O)[O-])cc1)NC(=O)c1cccc2ccccc12 [SB328437],"CNV area, mean","[2]; Test Example 4, Compositions 14, 15, 16 containing 1.33, 1.67, 3.33 mg/mL of SB328437, SB328437 2 mg/mL in DMSO",26040
same,"Test results, CNV area vs. DMSO, t-test",[2]; Test Example 9,* (P < 0.05)
same,"CNV area, mean","[2]; Test Example 9, Composition 36 containing 1 mg/mL of SB328437, SB328437 1 mg/mL in DMSO",38911
